Columns and labels:
[1] = tested on: regional myocardial ischemia and reperfusion (LAD occlusion); test: Infarct size in a rat model of regional myocardial ischemia and reperfusion; type: in vivo; details: iv
Procedure: Seventy two male Wistar rats (215-300 g, Charles River, Margate, U.K.) were anaesthetized with thiopentone sodium (Intraval®, 120 mg/kg i.p.; Rhone-Merrieux, Essex, U.K.). The rats were tracheotomised and ventilated with a Harvard ventilator (70 strokes/min, tidal volume: 8-10 ml/kg, inspiratory oxygen concentration: 30%). Body temperature was maintained at 38±1° C. The right carotid artery was cannulated and connected to a pressure transducer (MLT 844, AD Instruments Ltd, Hastings, UK) to monitor mean arterial blood pressure and heart rate, which were continuously recorded on a data acquisition system (Powerlab® Version 4.0.4, AD Instruments, Hastings, UK) installed on a Dell Dimension 4100 personal computer, throughout the experiment. The right jugular vein was cannulated for the administration of test compound and Evans Blue dye (at the end of the experiment). A parasternal thoracotomy was performed, the heart was suspended in a temporary pericardial cradle and a snare occluder was placed around the left anterior descending coronary artery (LAD). After completion of the surgical procedure the animals were allowed to stabilize for 30 min before LAD ligation. The coronary artery was occluded at time 0 by tightening of the occluder. After 25 min of acute myocardial ischemia, the occluder was released to allow reperfusion for 2 h.
The test compounds were administered as a slow intravenous injection (i.v.) 5 min prior to the onset of reperfusion of the ischemic heart. Following the 2 h reperfusion period, the coronary artery was re-occluded and Evans Blue dye (1 ml of 2% w/v) was injected into the left ventricle, via the right jugular vein cannula, to distinguish between perfused and non-perfused (AAR) sections of the heart. The Evans Blue solution stains the perfused myocardium, while the occluded vascular bed remains uncolored. The animals were sacrificed with an overdose of anesthetic and the heart excised. The heart was sectioned into slices of 3-4 mm thick, the right ventricular wall was removed, and the AAR (pink) was separated from the non-ischemic (blue) area. […]

eNOS = test: Western blot analysis for eNOS protein in ischemia-reperfusion rat heart; type: in vivo; details: ischemia 25 min, reperfusion 2 h, 1.5 mg/kg at 5 min prior to reperfusion, P<0.05 vs vehicle
Procedure: To elucidate the effects of the test compounds on the infarct size caused by regional myocardial ischemia and reperfusion, all animals were randomized into 8 study groups. The first group (Sham) comprised of animals not subjected to regional myocardial ischemia (25 min) followed by reperfusion (2 h) and treated with vehicle (1 ml/kg) 5 minutes prior to the onset of reperfusion. The second group of animals were subjected to regional myocardial ischemia (25 min) followed by reperfusion (2 h) and were treated with vehicle (saline, 1 ml/kg). […]
Hearts were pulverized at −80° C. using liquid nitrogen and a stainless steel pestle and mortar. […] Total protein concentrations were determined using the Bradford method (Bio-Rad, UK). […] Signals were detected using the enhanced chemiluminescence (ECL™) detection system (Cell Signaling Technology, U.S.A.) and autoradiographic film. For quantification of protein expression all blots were reprobed for muscle α-actin expression using 1/2000 dilution of a mouse anti-human actin (muscle antibody (Serotec), followed by incubation with a goat anti-mouse HRP linked secondary antibody ( 1/2000 dilution) (DakoCytomation, Denmark). Densitometry analysis was performed on scanned images (Hewlett Packard Scanjet) and analyzed using Scion Image (Scion Corp, National Institutes of Health, Bethesda, Md.).

[2] = tested on: ischemia-reperfusion rabbit; test: Ischemia-reperfusion rabbit mortality; type: in vivo
[3] = Hemodynamic effects (blood pressure, heart rate) in rats; type: in vivo, rat

Structure (SMILES): COc1cc2c(cc1OC)-c1c(OC)c(OC)cc3c1C(C2)N(CCOc1ccccc1OC)CC3 (stereo not shown) [Compound 16, N-[2-(2-methoxyphenoxyl)]ethylnorglaucine]
- infarct size ([1]; 0.5 mg/kg): 47±4 % of the area at risk
- infarct size ([1]; 1.5 mg/kg): 47±2 % of the area at risk
- reduction in eNOS protein expression caused by ischemia and reperfusion (eNOS): significantly reduced
- Died at ischemia period ([2]; 0.25 mg/kg, total 3, control 0 of 10): 0
- Died at reperfusion period ([2]; 0.25 mg/kg, total 3, control 3 of 10): 1
- Mortality (%) ([2]; 0.25 mg/kg, total 3, control 30): 33.3%
- Died at ischemia period ([2]; 2.5 mg/kg, total 6, control 0 of 10): 0
- Died at reperfusion period ([2]; 2.5 mg/kg, total 6, control 3 of 10): 0
- Mortality (%) ([2]; 2.5 mg/kg, total 6, control 30): 0%
- duration of blood pressure decrease [3]: about 45 minutes
- effects on blood pressure ([3]; 0.5 mg/kg to 50 mg/kg, FIG. 5A): no significant effects
- effects on heart rate ([3]; 0.5 mg/kg to 50 mg/kg, FIG. 5B): no significant effects
- time to recovery of heart rates after drug application ([3]; 50 mg/kg): 45 min
- heart rates after drug ([3]; 50 mg/kg, from 361.5±9.3 bpm, p<0.05): 295.4±16.8 bpm
- heart rates, % of baseline values ([3]; 50 mg/kg, p<0.05): 81.5±2.8 % of baseline values
- mean blood pressure after drug ([3]; at 3 minutes after drug administration, from 74.6±5.7 mmHg): 62.9±2.2 mmHg

From patent publication US7294715B2, “Aporphine and oxoaporphine compounds and pharmaceutical use thereof” (Lotus Pharmaceutical Co., Ltd., priority 2003, dated 2007)
